Assay results reported in patent US9023821B2, “Use of MicroRNA for treating diseases associated with a dysfunction of the cilia in multiciliated epithelial cells” (Centre National de la Recherche Scientifique, priority 2009, dated 2015).

Legend:
[1] = test system: human airway epithelial cells (HAECs); experiment: Agilent miRNA chips, miRNA expression at four stages of differentiation of HAECs; settings: for Modulation (ratio of the level of intensity of expression in log2 in two stages of differentiation) measured with the Agilent chips, D7 − D0 / Modulation (ratio of the level of intensity of expression in log2 in two stages of differentiation) measured with the Agilent chips, FC − D7 / Modulation (ratio of the level of intensity of expression in log2 in two stages of differentiation) measured with the Agilent chips, WD − D0 / Modulation (ratio of the level of intensity of expression in log2 in two stages of differentiation) measured with the Agilent chips, WD − FC / Level of intensity of expression in log2 measured with the Agilent chips, D0 / Level of intensity of expression in log2 measured with the Agilent chips, D7 / Level of intensity of expression in log2 measured with the Agilent chips, FC / Level of intensity of expression in log2 measured with the Agilent chips, WD: Table VI; for Modulation (ratio of the level of intensity of expression in log2 at two stages of differentiation), FC − D7 / Modulation (ratio of the level of intensity of expression in log2 at two stages of differentiation), WD − FC: Agilent miRNA chips, Table V; for Level of intensity of expression in log2 measured with the Agilent chips, D0: stage D0; for Level of intensity of expression in log2 measured with the Agilent chips, D7: stage D7; for Level of intensity of expression in log2 measured with the Agilent chips, FC: stage FC; for Level of intensity of expression in log2 measured with the Agilent chips, WD: stage WD
In short: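 Arrays probing 866 human and 89 human viral miRNAs were used in parallel with sequencing. The same patients' RNA was labelled and hybridized following the manufacturer's protocol.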

[2] = test system: human airway epithelial cells (HAECs); experiment: High-throughput sequencing (HTS) of miRNAs at four stages of differentiation of HAECs; settings: for Modulation (ratio of the level of intensity of expression in log2 in two stages of differentiation) measured by high-throughput sequencing, D7 − D0 / Modulation (ratio of the level of intensity of expression in log2 in two stages of differentiation) measured by high-throughput sequencing, FC − D7 / Modulation (ratio of the level of intensity of expression in log2 in two stages of differentiation) measured by high-throughput sequencing, WD − D0 / Modulation (ratio of the level of intensity of expression in log2 in two stages of differentiation) measured by high-throughput sequencing, WD − FC / Level of intensity of expression in log2 measured by high-throughput sequencing, D0 / Level of intensity of expression in log2 measured by high-throughput sequencing, D7 / Level of intensity of expression in log2 measured by high-throughput sequencing, FC / Level of intensity of expression in log2 measured by high-throughput sequencing, WD: Table VI; for Level of intensity of expression in log2 At the differentiated stage (WD) measured in HTS: healthy human airway epithelial tissue; for Level of intensity of expression in log2 measured by high-throughput sequencing, D0: stage D0; for Level of intensity of expression in log2 measured by high-throughput sequencing, D7: stage D7; for Level of intensity of expression in log2 measured by high-throughput sequencing, FC: stage FC; for Level of intensity of expression in log2 At the differentiated stage (WD) measured in HTS / Level of intensity of expression in log2 measured by high-throughput sequencing, WD: stage WD; for Modulation (ratio of the level of intensity of expression in log2 in two stages of differentiation), D7 − D0 / Modulation (ratio of the level of intensity of expression in log2 in two stages of differentiation), FC − D7 / Modulation (ratio of the level of intensity of expression in log2 in two stages of differentiation), WD − FC / Abundance (%), D0 / Abundance (%), D7 / Abundance (%), FC / Abundance (%), WD: HTS; for Abundance (%), D0: ALI-D0; for Abundance (%), D7: ALI-D7; for Abundance (%), FC: ALI-FC; for Abundance (%), WD: ALI-WD
In short: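 Small-RNA libraries from differentiating HAECs (ALI-D0 to ALI-WD) were built by ligation-based SOLiD chemistry, size-selected and sequenced. Strand counts were normalized per million reads, converted to percentage abundance, and filtered on adjusted P-value below 0.05.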

[3] = test system: basal cells and pyramidal cells of the airway epithelium; experiment: miRNA expression in sorted basal cells versus pyramidal cells (ciliated + secretory), HTS and Agilent chips; design: species or system human; settings: for Modulation of expression of the miRNAs in pyramidal cells (323(−)) relative to basal cells 323(+): HTS and Agilent chips; for Intensity of the level of expression in log2 in pyramidal cells (323(−)): pyramidal cells (ciliated + secretory)
In short: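 Epithelium dissociated from nasal polyps is held 30 min in PBS-BSA-EDTA, then labelled 20 min at 4° C for CD151 and tissue factor. After DAPI staining, live single cells are sorted into marker-double-positive and double-negative fractions, and sort purity and identity are verified. Total RNA then undergoes miRNA profiling on arrays or by sequencing.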

Row | Substance | Modulation (ratio of the level of intensity of expression in log2 in two stages of differentiation) measured with the Agilent chips, D7 − D0 [1] [log2] | Modulation (ratio of the level of intensity of expression in log2 in two stages of differentiation) measured with the Agilent chips, FC − D7 [1] [log2] | Modulation (ratio of the level of intensity of expression in log2 in two stages of differentiation) measured with the Agilent chips, WD − D0 [1] [log2] | Modulation (ratio of the level of intensity of expression in log2 in two stages of differentiation) measured with the Agilent chips, WD − FC [1] [log2] | Level of intensity of expression in log2 measured with the Agilent chips, D0 [1] [log2] | Level of intensity of expression in log2 measured with the Agilent chips, D7 [1] [log2] | Level of intensity of expression in log2 measured with the Agilent chips, FC [1] [log2] | Level of intensity of expression in log2 measured with the Agilent chips, WD [1] [log2] | Modulation (ratio of the level of intensity of expression in log2 in two stages of differentiation) measured by high-throughput sequencing, D7 − D0 [2] [log2] | Modulation (ratio of the level of intensity of expression in log2 in two stages of differentiation) measured by high-throughput sequencing, FC − D7 [2] [log2] | Modulation (ratio of the level of intensity of expression in log2 in two stages of differentiation) measured by high-throughput sequencing, WD − D0 [2] [log2] | Modulation (ratio of the level of intensity of expression in log2 in two stages of differentiation) measured by high-throughput sequencing, WD − FC [2] [log2] | Level of intensity of expression in log2 At the differentiated stage (WD) measured in HTS [2] [log2] | Level of intensity of expression in log2 measured by high-throughput sequencing, D0 [2] [log2] | Level of intensity of expression in log2 measured by high-throughput sequencing, D7 [2] [log2] | Level of intensity of expression in log2 measured by high-throughput sequencing, FC [2] [log2] | Level of intensity of expression in log2 measured by high-throughput sequencing, WD [2] [log2] | Modulation of expression of the miRNAs in pyramidal cells (323(−)) relative to basal cells 323(+) [3] | Intensity of the level of expression in log2 in basal cells (323(+)) [3] [log2] | Intensity of the level of expression in log2 in pyramidal cells (323(−)) [3] [log2] | other results
1 | hsa-miR-30e: human miRNA, SEQ ID No. 36 (UGUAAACAUCCUUGACUGGAAG; expressed or natural sequence; listed as Homo sapiens) | 2.76 | −0.25 | 2.38 | −0.13 | 6.73 | 9.50 | 9.25 | 9.12 | 1.27 | −0.02 | 1.71 | 0.46 | 12.74 | 7.04 | 8.31 | 8.30 | 8.76 | −1.60 | 6.94 | 5.34 | Modulation (ratio of the level of intensity of expression in log2 at two stages of differentiation), FC − D7 [1]: −0.25 log2; Modulation (ratio of the level of intensity of expression in log2 at two stages of differentiation), WD − FC [1]: −0.13 log2
2 | hsa-miR-34a: human miRNA, SEQ ID No. 38 (UGGCAGUGUCUUAGCUGGUUGU; expressed or natural sequence; listed as Homo sapiens) | 2.31 | −0.54 | 1.91 | 0.13 | 8.58 | 10.89 | 10.35 | 10.49 | 1.46 | −1.04 | 0.88 | 0.45 | 13.75 | 10.31 | 11.77 | 10.73 | 11.18 | 0.64 | 6.72 | 7.36 | Modulation (ratio of the level of intensity of expression in log2 at two stages of differentiation), FC − D7 [1]: −0.54 log2; Modulation (ratio of the level of intensity of expression in log2 at two stages of differentiation), WD − FC [1]: 0.13 log2
3 | hsa-miR-34c-5p: human miRNA, SEQ ID No. 40 (AGGCAGUGUAGUUAGCUGAUUGC; expressed or natural sequence; listed as Homo sapiens) | 2.35 | 4.27 | 7.44 | 0.82 | 3.94 | 6.29 | 10.56 | 11.39 | 1.33 | 4.02 | 6.41 | 1.06 | 0.01 | 7.88 | 9.21 | 13.23 | 14.29 | 5.74 | 4.75 | 10.49 | Modulation (ratio of the level of intensity of expression in log2 at two stages of differentiation), FC − D7 [1]: 4.27 log2; Modulation (ratio of the level of intensity of expression in log2 at two stages of differentiation), WD − FC [1]: 0.82 log2; Modulation (ratio of the level of intensity of expression in log2 in two stages of differentiation), D7 − D0 [2]: 1.33 log2; Modulation (ratio of the level of intensity of expression in log2 in two stages of differentiation), FC − D7 [2]: 4.02 log2; Modulation (ratio of the level of intensity of expression in log2 in two stages of differentiation), WD − FC [2]: 1.06 log2; Abundance (%), D0 [2]: 0.05%; Abundance (%), D7 [2]: 0.13%; Abundance (%), FC [2]: 2.05%; Abundance (%), WD [2]: 3.23%
4 | hsa-miR-92b: human miRNA, SEQ ID No. 49 (UAUUGCACUCGUCCCGGCCUCC; expressed or natural sequence; listed as Homo sapiens) | 0.48 | 4.21 | 4.39 | −0.29 | 0.10 | 0.57 | 4.78 | 4.49 | 1.21 | 4.12 | 5.93 | 0.60 | 0.01 | 7.49 | 8.70 | 12.82 | 13.42 | 1.67 | 0.40 | 2.07 | Modulation (ratio of the level of intensity of expression in log2 in two stages of differentiation), D7 − D0 [2]: 1.21 log2; Modulation (ratio of the level of intensity of expression in log2 in two stages of differentiation), FC − D7 [2]: 4.12 log2; Modulation (ratio of the level of intensity of expression in log2 in two stages of differentiation), WD − FC [2]: 0.60 log2; Abundance (%), D0 [2]: 0.04%; Abundance (%), D7 [2]: 0.09%; Abundance (%), FC [2]: 1.54%; Abundance (%), WD [2]: 1.77%
